Measured values taken from publication PMC9896891 (International Journal of Biological Macromolecules, 2023).
Counter-ions that a name gives are not always drawn. Like-named read-outs stand apart in the source and are kept apart here.

Tests used:
SARS-CoV-2 [1] = format: cell-based
[2] = biological target: T1, SARS-CoV-2 Main protease (M^pro) (Severe acute respiratory syndrome coronavirus 2, UniProt P0DTD1); format: binding
[3] = biological target: T1, SARS-CoV-2 Main protease (M^pro); experiment: biochemical; format: binding
SARS-CoV-2 [4] = experiment: Treatment points; format: cell-based; conditions: Vero cells, 48 h
[5] = screen of 156 drugs and natural compounds
[6] = relative to M^pro alone (53.5 ± 1 °C)
[7] = compound 8, relative to H2–2/8/9

## Cc1cccc(Nc2ccccc2C(=O)O)c1C [Compound 2, Mefenamic acid]
SARS-CoV-2 [1]; 83 μM, Vero cells
  % Reduction in viral plaques: 81–88%
[2]; compound 2, largest STD integral, reference
  Relative STD saturation, H3–16: 100%
[2]; compound 2, relative to H3–16
  Relative STD saturation, H3–15: 90.7%
[2]; [5]
  Interaction with M^pro in STD-NMR spectroscopy: interacting
[3]
  Kd: ~15 µM
[3]; [6]
  Modulation of Tm of M^pro: +2.9 °C

## CCC(CC)COC(=O)[C@H](C)N[P@](=O)(OC[C@H]1O[C@@](C#N)(c2ccc3c(N)ncnn23)[C@H](O)[C@@H]1O)Oc1ccccc1 [Compound 13, Remdesivir]
SARS-CoV-2 [1]; 83 μM, Vero cells
  % Reduction in viral plaques: 81–88%
[2]; compound 13, highest STD integral, reference
  Relative STD saturation, H-37: 100%
[2]; compound 13, relative to H-37
  Relative STD saturation, H-18/H-22: 64.95%
  Relative STD saturation, H-19/H-21: 69.88%
  Relative STD saturation, H-20: 55.82%
  Relative STD saturation, H-34: 78.86%
  Relative STD saturation, H-35: 80.79%

## Cc1cccc(C)c1OCC(C)N (centres unmarked) [Compound 4, Mexiletine hydrochloride]
SARS-CoV-2 [1]
  % Reduction in viral plaques: 75.5%
[2]
  Interaction with M^pro in STD-NMR spectroscopy: interacting
  Relative STD saturation, H-6/H-8: 86.87%
  Relative STD saturation, aromatic H-7: 100%
  Relative STD saturation, methyl H-3: 20%
[3]
  Kd: ~21 µM
  Modulation of Tm of M^pro: +2.9 °C

## C[C@@H]1C[C@H]2[C@@H]3CCC4=CC(=O)C=C[C@]4(C)[C@@]3(F)[C@@H](O)C[C@]2(C)[C@@]1(O)C(=O)CO [Compound 12, Dexamethasone]
SARS-CoV-2 [1]; 83 μM, Vero cells
  % Reduction in viral plaques: 77.27%
[2]; compound 12, highest STD integral, reference
  Relative STD saturation, Ha-6: 100%
[2]; compound 12, relative to Ha-6
  Relative STD saturation, Ha-7: 58.8%
  Relative STD saturation, Hb-6: 54.8%
  Relative STD saturation, Hb-7: 18.77%
  Relative STD saturation, methyl H3–19: 4.13%
[3]; [6]
  Modulation of Tm of M^pro: +2.9 °C

## NC12CC3CC(CC(C3)C1)C2 [Compound 8, Amantadine hydrochloride]
SARS-CoV-2 [1]; 83 μM, Vero cells
  % Reduction in viral plaques: 77.27%
[2]; compound 8, highest STD integral, reference
  Relative STD saturation, H2–2, H2–8, H2–9: 100%
[2]; [7]
  Relative STD saturation, H2–4, H2–6, H2–10: 59–64%
  Relative STD saturation, H-3, H-5, H-7: 78%
[2]; [5]
  Interaction with M^pro in STD-NMR spectroscopy: interacting
[3]; [6]
  Modulation of Tm of M^pro: +2.9 °C

## COc1ccc2c(c1)[C@]13CCCC[C@@H]1[C@H](C2)N(C)CC3 [Compound 9, Dextromethorphan]
SARS-CoV-2 [1]; 83 μM, Vero cells
  % Reduction in viral plaques: 81–88%
[2]; compound 9, reference proton
  Relative STD saturation, 2H-16: highest saturation
[2]; compound 9, relative to 2H-16
  Relative STD saturation, H-6: 95%
  Relative STD saturation, aromatic H-10: 70.6%
  Relative STD saturation, methyl 3H-18: 30.8%
  Relative STD saturation, methyl 3H-20: 12.8%
[2]; [5]
  Interaction with M^pro in STD-NMR spectroscopy: interacting
SARS-CoV-2 [4]; 83 μM
  Therapeutic Effect, Log10 of Fold Change: 2.11

## CCN(CC)CCCC(C)Nc1ccnc2cc(Cl)ccc12 (centres unmarked) [Compound 11, Chloroquine phosphate]
SARS-CoV-2 [1]; 41.5 μM, Vero cells
  % Reduction in viral plaques: 63.2%
SARS-CoV-2 [1]; 83 μM, Vero cells
  % Reduction in viral plaques: 100%

## CCCCc1nc(Cl)c(CO)n1Cc1ccc(-c2ccccc2-c2nn[nH]n2)cc1 [Compound 3, Losartan potassium]
SARS-CoV-2 [1]; 83 μM, Vero cells
  % Reduction in viral plaques: 54.54%
[2]; compound 3, largest STD integral, reference
  Relative STD saturation, H2–7: 100%
[2]; compound 3, relative to H2–7
  Relative STD saturation, H2–8: 45.22%
  Relative STD saturation, H2–9: 42.15%
  Relative STD saturation, H3–10: 31.49%
[2]; [5]
  Interaction with M^pro in STD-NMR spectroscopy: interacting
[3]
  Kd: ~64 µM

## CC(C(=O)O)c1ccc(-c2ccccc2)c(F)c1 (centres unmarked) [Compound 7, Flurbiprofen]
SARS-CoV-2 [1]; 83 μM, Vero cells
  % Reduction in viral plaques: 59.09%
[2]; compound 7, highest integral, reference
  Relative STD saturation, methyl H-1: 100%
[2]; compound 7, relative to H-1
  Relative STD saturation, H-2: 44.10%
[2]; [5]
  Interaction with M^pro in STD-NMR spectroscopy: interacting
[3]
  Kd: ~66 µM

## COc1ccc([C@@H]2Sc3ccccc3N(CCN(C)C)C(=O)[C@@H]2OC(C)=O)cc1 [Compound 1, Diltiazem hydrochloride]
SARS-CoV-2 [1]; 83 μM, Vero cells
  % Reduction in viral plaques: 81–88%
[2]; compound 1, largest STD integral, reference
  Relative STD saturation, C-4 methyl protons (H3–4): 100%
[2]; compound 1, relative to H3–4
  Relative STD saturation, H3–28/H3–29: 31.99%
[2]; [5]
  Interaction with M^pro in STD-NMR spectroscopy: interacting
[3]
  Kd: ~44 µM
SARS-CoV-2 [4]; 42.5 μM
  Therapeutic Effect, Log10 of Fold Change: 2.00
SARS-CoV-2 [4]; 83 μM
  Therapeutic Effect, Log10 of Fold Change: 2.02
